Data taken from patent US9359352B2, “Substituted benzimidazoles as PI3 kinase inhibitors” (Intellikine LLC, priority 2010, dated 2016).

How the values were obtained:
Type in all cases: biochemical
[1] = biological target: T1, PI3K α (Homo sapiens, UniProt P42336); test: PI 3-Kinase HTRF inhibition assay, PI3K α; conditions: in vitro; read-out: PI3K α IC50
T1 construct: purchased Upstate
Procedure: (§1) Commercial kits or systems for assaying PI3-K activities are available. The commercially available kits or systems can be used to screen for inhibitors and/or agonists of PI3-Ks including but not limited to PI 3-Kinase α, β, δ, and γ. An exemplary system is PI 3-Kinase (human) HTRF™ Assay from Upstate. […] Briefly, the assay is a time resolved FRET assay that indirectly measures PIP3 product formed by the activity of a PI3-K. The kinase reaction is performed in a microtitre plate (e.g., a 384 well microtitre plate). The total reaction volume is approximately 20 ul per well. In the first step, each well receives 2 ul of test compound in 20% dimethylsulphoxide resulting in a 2% DMSO final concentration. Next, approximately 14.5 ul of a kinase/PIP2 mixture (diluted in 1× reaction buffer) is added per well for a final concentration of 0.25-0.3 ug/ml kinase and 10 μM PIP2. The plate is scaled and incubated for 15 minutes at room temperature. To start the reaction, 3.5 ul of ATP (diluted in 1× reaction buffer) is added per well for a final concentration of 10 μM ATP. The plate is sealed and incubated for 1 hour at room temperature. The reaction is stopped by adding 5 ul of Stop Solution per well and then 5 ul of Detection Mix is added per well. The plate is sealed, incubated for 1 hour at room temperature, and then read on an appropriate plate reader. Data is analyzed and IC50s are generated using GraphPad Prism 5. For PI3K α, β, δ, and γ, the nM concentration of inhibitor to reach IC50 is provided. […] Similar assays, and others known in the art, can be used to measure the percent inhibition of other kinases, including but not limited to PI3K class II kinases, phosphoinositide 4 kinases (PI4K), and phosphoinositide 5 kinases (PI5K).

[2] = biological target: T2, PI3K β (Homo sapiens, UniProt P42338); test: PI 3-Kinase HTRF inhibition assay, PI3K β; conditions: in vitro
T2 construct: purchased Upstate
T2 sequence (P42338 whole entry): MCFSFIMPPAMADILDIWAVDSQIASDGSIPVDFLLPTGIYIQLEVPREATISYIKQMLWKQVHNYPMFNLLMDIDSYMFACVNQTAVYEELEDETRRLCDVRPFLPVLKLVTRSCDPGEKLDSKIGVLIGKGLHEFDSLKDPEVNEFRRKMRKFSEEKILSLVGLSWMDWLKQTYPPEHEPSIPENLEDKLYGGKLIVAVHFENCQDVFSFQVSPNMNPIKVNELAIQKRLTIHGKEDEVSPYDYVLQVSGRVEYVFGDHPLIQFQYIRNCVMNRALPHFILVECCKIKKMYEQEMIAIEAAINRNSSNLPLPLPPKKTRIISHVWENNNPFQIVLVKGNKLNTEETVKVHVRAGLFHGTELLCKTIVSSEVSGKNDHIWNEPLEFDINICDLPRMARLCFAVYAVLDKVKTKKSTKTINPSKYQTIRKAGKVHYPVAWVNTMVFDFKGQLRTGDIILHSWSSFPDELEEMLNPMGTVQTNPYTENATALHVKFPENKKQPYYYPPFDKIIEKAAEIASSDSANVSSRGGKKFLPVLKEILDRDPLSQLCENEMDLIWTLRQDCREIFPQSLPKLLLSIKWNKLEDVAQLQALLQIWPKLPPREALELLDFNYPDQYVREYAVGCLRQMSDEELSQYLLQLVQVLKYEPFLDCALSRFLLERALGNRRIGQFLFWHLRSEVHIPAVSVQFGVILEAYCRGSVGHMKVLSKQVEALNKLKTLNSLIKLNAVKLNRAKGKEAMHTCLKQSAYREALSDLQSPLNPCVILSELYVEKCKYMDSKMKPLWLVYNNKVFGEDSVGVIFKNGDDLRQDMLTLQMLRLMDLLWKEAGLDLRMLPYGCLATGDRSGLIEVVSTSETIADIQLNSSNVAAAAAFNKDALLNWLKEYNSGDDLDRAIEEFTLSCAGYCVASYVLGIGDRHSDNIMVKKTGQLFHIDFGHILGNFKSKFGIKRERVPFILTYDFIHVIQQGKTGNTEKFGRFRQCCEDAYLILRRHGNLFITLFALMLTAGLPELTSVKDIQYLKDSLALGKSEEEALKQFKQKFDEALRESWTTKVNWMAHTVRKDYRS
T2 sequence (P27986 whole entry partner): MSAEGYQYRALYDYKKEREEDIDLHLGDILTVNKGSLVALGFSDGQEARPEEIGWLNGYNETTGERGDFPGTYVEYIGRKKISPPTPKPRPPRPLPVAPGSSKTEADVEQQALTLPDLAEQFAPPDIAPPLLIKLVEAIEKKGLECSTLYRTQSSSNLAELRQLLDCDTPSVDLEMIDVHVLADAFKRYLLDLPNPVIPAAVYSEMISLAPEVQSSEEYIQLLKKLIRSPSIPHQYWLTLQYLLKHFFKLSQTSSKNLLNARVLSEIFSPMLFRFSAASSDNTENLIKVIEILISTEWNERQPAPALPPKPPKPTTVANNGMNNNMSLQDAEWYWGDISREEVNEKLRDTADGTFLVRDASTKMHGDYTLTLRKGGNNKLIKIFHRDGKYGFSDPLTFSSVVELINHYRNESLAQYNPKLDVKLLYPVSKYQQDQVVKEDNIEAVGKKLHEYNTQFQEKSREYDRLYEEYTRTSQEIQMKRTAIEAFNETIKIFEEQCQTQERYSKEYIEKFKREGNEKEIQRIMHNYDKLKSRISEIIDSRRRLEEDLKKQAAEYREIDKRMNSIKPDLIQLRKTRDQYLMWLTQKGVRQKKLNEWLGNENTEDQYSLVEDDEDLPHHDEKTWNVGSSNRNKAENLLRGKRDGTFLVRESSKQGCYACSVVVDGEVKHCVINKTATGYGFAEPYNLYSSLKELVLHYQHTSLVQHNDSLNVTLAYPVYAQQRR
Procedure: as §1

[3] = biological target: T3, PI3K δ (Homo sapiens, UniProt O00329); test: PI 3-Kinase HTRF inhibition assay, PI3K δ; conditions: in vitro; read-out: PI3K δ IC50
T3 construct: purchased Upstate
T3 sequence (O00329 whole entry): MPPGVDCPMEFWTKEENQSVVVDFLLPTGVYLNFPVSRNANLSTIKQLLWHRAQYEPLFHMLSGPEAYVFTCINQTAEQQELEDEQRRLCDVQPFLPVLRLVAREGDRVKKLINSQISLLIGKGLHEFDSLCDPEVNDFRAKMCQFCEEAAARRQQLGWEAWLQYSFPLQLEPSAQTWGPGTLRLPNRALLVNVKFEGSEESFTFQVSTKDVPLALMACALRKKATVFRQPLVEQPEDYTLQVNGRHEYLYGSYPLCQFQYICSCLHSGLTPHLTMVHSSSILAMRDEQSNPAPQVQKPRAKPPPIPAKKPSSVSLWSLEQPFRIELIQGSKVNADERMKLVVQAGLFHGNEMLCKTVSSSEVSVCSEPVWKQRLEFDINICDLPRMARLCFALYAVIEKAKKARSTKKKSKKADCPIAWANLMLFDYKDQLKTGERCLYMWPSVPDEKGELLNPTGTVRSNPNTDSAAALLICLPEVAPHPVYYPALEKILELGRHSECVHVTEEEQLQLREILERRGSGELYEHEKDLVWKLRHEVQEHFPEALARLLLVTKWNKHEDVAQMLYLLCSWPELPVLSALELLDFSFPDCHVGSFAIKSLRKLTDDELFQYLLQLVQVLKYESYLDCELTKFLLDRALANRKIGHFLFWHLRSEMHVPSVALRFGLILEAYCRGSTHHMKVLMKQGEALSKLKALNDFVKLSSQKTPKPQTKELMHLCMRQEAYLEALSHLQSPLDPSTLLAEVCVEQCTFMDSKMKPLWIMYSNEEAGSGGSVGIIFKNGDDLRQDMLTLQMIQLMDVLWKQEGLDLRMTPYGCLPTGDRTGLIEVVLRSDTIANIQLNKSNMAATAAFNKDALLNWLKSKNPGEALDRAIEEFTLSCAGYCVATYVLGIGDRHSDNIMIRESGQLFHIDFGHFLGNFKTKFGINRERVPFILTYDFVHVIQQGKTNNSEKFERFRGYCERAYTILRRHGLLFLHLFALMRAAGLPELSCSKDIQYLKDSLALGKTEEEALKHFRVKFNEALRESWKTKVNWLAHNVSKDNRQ
T3 sequence (P27986 whole entry partner): as the sequence (P27986 whole entry partner) above
Procedure: as §1

[4] = biological target: T4, PI3K γ (Homo sapiens, UniProt P48736); test: PI 3-Kinase HTRF inhibition assay, PI3K γ; conditions: in vitro
T4 construct: purchased Upstate
T4 sequence (P48736 whole entry): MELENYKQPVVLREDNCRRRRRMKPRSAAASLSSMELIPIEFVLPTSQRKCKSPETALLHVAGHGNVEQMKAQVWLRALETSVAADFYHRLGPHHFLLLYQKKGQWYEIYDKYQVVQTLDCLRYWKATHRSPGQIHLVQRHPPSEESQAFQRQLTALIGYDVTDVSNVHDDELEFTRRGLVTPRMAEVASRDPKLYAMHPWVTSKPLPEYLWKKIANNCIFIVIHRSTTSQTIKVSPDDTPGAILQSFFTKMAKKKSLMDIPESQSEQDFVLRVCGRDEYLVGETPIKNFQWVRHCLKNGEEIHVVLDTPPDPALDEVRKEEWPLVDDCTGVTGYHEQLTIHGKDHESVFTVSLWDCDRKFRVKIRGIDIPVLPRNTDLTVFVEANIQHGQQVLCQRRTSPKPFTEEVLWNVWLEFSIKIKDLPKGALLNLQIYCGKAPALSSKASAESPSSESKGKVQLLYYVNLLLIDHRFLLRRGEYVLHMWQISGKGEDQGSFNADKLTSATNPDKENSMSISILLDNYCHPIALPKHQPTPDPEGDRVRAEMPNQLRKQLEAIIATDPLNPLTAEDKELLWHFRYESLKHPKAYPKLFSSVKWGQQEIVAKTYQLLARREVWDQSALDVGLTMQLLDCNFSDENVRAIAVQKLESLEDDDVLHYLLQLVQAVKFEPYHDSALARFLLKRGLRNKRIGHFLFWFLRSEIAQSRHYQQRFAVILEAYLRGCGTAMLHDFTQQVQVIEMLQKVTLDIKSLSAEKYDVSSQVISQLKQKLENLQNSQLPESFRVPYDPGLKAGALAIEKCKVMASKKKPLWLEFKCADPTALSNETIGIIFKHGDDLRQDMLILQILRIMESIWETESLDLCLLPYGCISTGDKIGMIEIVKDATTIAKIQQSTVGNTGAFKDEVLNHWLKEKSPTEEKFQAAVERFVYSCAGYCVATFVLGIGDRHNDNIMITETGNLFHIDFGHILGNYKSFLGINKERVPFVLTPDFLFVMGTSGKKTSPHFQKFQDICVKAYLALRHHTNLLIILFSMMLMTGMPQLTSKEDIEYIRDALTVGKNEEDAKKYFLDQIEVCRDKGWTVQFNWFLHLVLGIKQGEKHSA

T1 sequence (P42336 whole entry): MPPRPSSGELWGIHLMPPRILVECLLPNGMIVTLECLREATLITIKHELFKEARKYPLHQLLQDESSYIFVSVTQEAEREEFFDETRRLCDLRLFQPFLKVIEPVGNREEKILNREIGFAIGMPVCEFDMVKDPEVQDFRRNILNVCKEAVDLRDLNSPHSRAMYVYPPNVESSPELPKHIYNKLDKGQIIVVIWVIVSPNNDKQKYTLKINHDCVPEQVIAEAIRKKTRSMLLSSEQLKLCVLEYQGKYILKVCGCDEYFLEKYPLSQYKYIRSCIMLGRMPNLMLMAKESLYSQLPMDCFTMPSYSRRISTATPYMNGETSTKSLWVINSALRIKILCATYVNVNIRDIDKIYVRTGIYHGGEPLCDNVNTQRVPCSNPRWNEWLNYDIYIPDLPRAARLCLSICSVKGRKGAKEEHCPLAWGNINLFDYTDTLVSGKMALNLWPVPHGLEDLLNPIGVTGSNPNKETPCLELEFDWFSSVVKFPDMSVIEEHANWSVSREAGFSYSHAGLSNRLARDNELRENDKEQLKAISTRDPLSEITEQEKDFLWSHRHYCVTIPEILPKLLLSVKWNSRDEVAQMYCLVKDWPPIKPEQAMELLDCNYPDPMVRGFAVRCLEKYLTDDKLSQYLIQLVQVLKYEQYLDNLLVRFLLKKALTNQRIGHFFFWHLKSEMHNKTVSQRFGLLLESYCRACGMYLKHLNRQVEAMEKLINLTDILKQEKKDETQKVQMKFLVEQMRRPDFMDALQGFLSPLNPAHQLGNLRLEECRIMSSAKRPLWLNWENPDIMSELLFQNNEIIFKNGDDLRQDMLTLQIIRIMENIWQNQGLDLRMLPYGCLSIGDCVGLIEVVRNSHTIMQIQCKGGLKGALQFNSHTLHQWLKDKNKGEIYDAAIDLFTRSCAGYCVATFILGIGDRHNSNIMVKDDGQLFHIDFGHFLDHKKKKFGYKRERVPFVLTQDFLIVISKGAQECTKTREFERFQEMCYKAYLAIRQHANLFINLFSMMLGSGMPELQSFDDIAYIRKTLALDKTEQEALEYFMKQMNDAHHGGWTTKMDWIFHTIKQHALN
T1 sequence (P27986 whole entry partner): as the sequence (P27986 whole entry partner) above

Row | SMILES | IC50 [1] [nM] | IC50 [2] [µM] | IC50 [3] [µM] | IC50 [4] [µM]
1 | CC(C)(N)C(=O)N1CCN(c2cnc3ccc(-c4ccc5oc(N)nc5c4)nc3n2)CC1 [Compound 40] | < 100 | < 10 | < 10 | < 10
2 | Nc1nc2cc(-c3ccc4ncc(N5CCN(C(=O)C6(N)CC6)CC5)cc4n3)ccc2o1 [Compound 42] | < 100 | < 1 | < 1 | < 0.1
3 | CC(C)N1CCN(c2cnc3ccc(-c4ccc5oc(N)nc5c4)nc3c2)CC1 [Compound 44] | < 100 | < 1 | < 1 | < 1
4 | Nc1nc2cc(-c3ccc4ncc(N5CCC(O)CC5)nc4n3)ccc2o1 [Compound 45] | < 100 | < 10 | > 10 | < 0.1
5 | Nc1nc2cc(-c3ccc4ncc(N5CC(N6CCN(CCO)CC6)C5)nc4n3)ccc2o1 [Compound 46] | < 100 | < 10 | < 10 | < 10
6 | C[C@H]1CN(c2cnc3ccc(-c4ccc5oc(N)nc5c4)nc3c2)CCN1 [Compound 47] | < 100 | < 0.1 | < 10 | < 1
7 | C[C@@H]1CN(c2cnc3ccc(-c4ccc5oc(N)nc5c4)nc3c2)CCN1 [Compound 48] | < 100 | < 1 | < 10 | < 10
8 | C[C@@H]1COCCN1C1CN(c2cnc3ccc(-c4ccc5oc(N)nc5c4)nc3n2)C1 [Compound 49] | < 10000 | > 10 | > 10 | < 10
9 | Cc1nccn1C1CN(c2cnc3ccc(-c4ccc5oc(N)nc5c4)nc3n2)C1 [Compound 50] | < 100 | < 10 | < 10 | < 10
10 | Nc1nc2cc(-c3ccc4ncc(N5CC(N6C7CCC6COC7)C5)nc4n3)ccc2o1 [Compound 51] | < 10000 | > 10 | > 10 | > 10
11 | CC1(C)CN(C2CN(c3cnc4ccc(-c5ccc6oc(N)nc6c5)nc4n3)C2)CCN1 [Compound 52] | < 100 | < 10 | < 1 | < 10
12 | Nc1nc2cc(-c3ccc4ncc(N5CC(N6CCOCC6)C5)cc4n3)ccc2o1 [Compound 53] | < 100 | < 10 | < 10 | < 1
13 | C[C@H]1CN(C2CN(c3cnc4ccc(-c5ccc6oc(N)nc6c5)nc4c3)C2)CCN1 [Compound 54] | < 100 | < 10 | < 1 | < 10
14 | C[C@H]1CN(C2CN(c3cnc4ccc(-c5ccc6oc(N)nc6c5)nc4c3)C2)CCN1C [Compound 55] | < 100 | < 10 | < 1 | < 10
15 | C[C@@H]1CN(C2CN(c3cnc4ccc(-c5ccc6oc(N)nc6c5)nc4c3)C2)CCN1 [Compound 56] | < 100 | < 10 | < 1 | < 1
16 | C[C@@H]1CN(C2CN(c3cnc4ccc(-c5ccc6oc(N)nc6c5)nc4c3)C2)CCN1C [Compound 57] | < 100 | < 10 | < 1 | < 10
17 | CC1(C)CN(C2CN(c3cnc4ccc(-c5ccc6oc(N)nc6c5)nc4c3)C2)CCN1 [Compound 58] | < 100 | < 10 | < 1 | < 1
18 | Nc1nc2cc(-c3ccc4ncc(N5CC6CCC(C5)O6)cc4n3)ccc2o1 [Compound 59] | < 100 | > 10 | > 10 | < 0.1
19 | Nc1nc2cc(-c3ccc4ncc(N5CC(N6CCN(CC7CC7)CC6)C5)cc4n3)ccc2o1 [Compound 60] | < 100 | < 10 | < 1 | < 10
20 | C[C@H]1COCCN1C1CN(c2cnc3ccc(-c4ccc5oc(N)nc5c4)nc3n2)C1 [Compound 61] | < 100 | > 10 | < 10 | < 10
21 | Nc1nc2cc(-c3ccc4ncc(N5CCC(O)CC5)cc4n3)ccc2o1 [Compound 62] | < 100 | < 10 | < 10 | < 1
22 | Cc1nccn1C1CN(c2cnc3ccc(-c4ccc5oc(N)nc5c4)nc3c2)C1 [Compound 63] | < 100 | < 10 | < 1 | < 0.1
